A value given as a limit tells only on which side of the number the result lay.

A short description of the assay: Anticancer activity against human ECC-1 cells assessed as cell death at 1 uM by tryphan blue staining based cell counter analysis relative to control.

Consider `Cc1cccc2c1NC(=O)C2(c1ccc(O)cc1)c1ccc(O)cc1`, for which the cell death at 1 µM was less than 20%.

(Values after ChEMBL document CHEMBL5223101, “Evolution of 3-(4-hydroxyphenyl)indoline-2-one as a scaffold for potent and selective anticancer activity” (RSC Med Chem, 2022).)
